US11401247B2, “Thiazole-5-carboxylic acid derivative and preparation method and use thereof” (XIANGBEI WELMAN PHARMACEUTICAL CO., LTD, priority 2018, dated 2022)
Where two headings read alike, the source gives them in different places.

Legend:
hyperuricemia rats [1] = experiment: pharmacodynamic screening in rat hyperuricemia model (exogenous uric acid administered, uric acid decomposition inhibited); type: in vivo, SD rats; details: for Serum uric acid level, Value after 3 h of drug administration: 3 h after first administration, model group 174.4 ± 39.9, blank 53.9 ± 12.8; for uric acid-lowering effect (in words): 3 h after drug administration, febuxostat and ethyl ester 14 mg/kg oral; for uric acid-lowering effect (in words) / p, uric acid level 3 h after drug administration compared with the blank group: F compounds 10 mg/kg; for p, uric acid level 3 h after drug administration compared with the blank group: febuxostat 14 mg/kg oral
ICR mice = details: for Autopsy results of survival animals: 3000 mg/kg ig; for Abnormal reactions within 12 hours from ig administration: F compounds 3000 mg/kg; for Number of dead animals: ig 3000 mg/kg, 10 mice; for death, preliminary experiments / toxic reactions, preliminary experiments / LD50/Maximum dose: mice; for death, preliminary experiments / toxic reactions, preliminary experiments: intragastric 1600 mg/kg; for LD50/Maximum dose: ig once, 14 days observation, Bliss method, febuxostat: LD50, F compounds: maximum administration dose, no deaths
in vivo = details: mouse, po
hyperuricemia rats [2] = experiment: dose-effect relationship study in rat hyperuricemia model; type: in vivo, SD rats; details: 3 h after first administration, model group 226.2 ± 35.2, blank 37.4 ± 5.1
Method: In order to further study the pharmacological activity of the compounds of the present disclosure, as well as the relationship between the activity and the dose, this example selected several compounds of the present disclosure to conduct a dose-effect relationship study in a rat model, in which exogenous uric acid was administered and uric acid decomposition was inhibited simultaneously. A positive drug was used as a control.
1. Experimental animals: Male SPF grade SD rats weighing 110-150 grams. […] The animals were free to drink and eat. All cages were sterilized at 121° C., feed was sterilized by irradiation, and water was sterilized purified water.
2. Experimental drugs: F-1C, F-2C, F-3A, 1.0 g for each compound; febuxostat (positive drug) 1.0 g; febuxostat ethyl ester (ethyl 2-[3-cyano-4-isobutoxyphenyl]-4-methylthiazole-5-carboxylate) 1.0 g;
3.1 Formulation of F-1C, F-2C, F-3A: Tor each of the compounds, take 100 mg, add 20 ml of 0.5% sodium carboxymethyl cellulose and grind, and then dilute to 100 ml.
3.2 Take 100 mg of febuxostat, add 20 ml of 0.5% sodium carboxymethyl cellulose and grind, and then dilute to 100 ml.
Except the blank group, the rest rats were modeled for 15 days and then their serum uric acid levels were detected. The rats were equally divided into several groups according to the detected uric acid levels thereof.
F-1C, F-2C and F-3A groups: each compound was taken orally at 3 doses, i.e., 2.5, 5 and 10 mg/kg; QD; and 10 animals for each dose group.
Febuxostat group: oral administration of 10 mg/kg, QD, and 10 animals.
Febuxostat ethyl ester group: oral administration of 10 mg/kg, QD, and 10 animals.
The blank group was not administrated with any drug. Each of the rest groups was orally administrated with oteracil potassium 1 g/kg and uric acid 0.3 g/kg and intraperitoneally injected with 0.1 g/kg uric acid (dissolved in 0.5% sodium carboxymethyl cellulose), once a day on schedule, for 15 days. 0.5 ml of blood samples was drawn from orbit before the experiment and […] after the modelling, respectively, to separated serum for determining serum uric acid levels.
After successful modeling, the rats were equally divided into several groups according to the serum uric acid values thereof, and then were intragastrically administrated with the test drugs. Three hours after the first administration, 0.5 ml of orbital venous blood was drawn from the orbit of the rats, centrifuged at 3000 RPM for 15 min, to obtain for determining the serum uric acid level of each rat.
Data were expressed by mean±standard deviation (′x±SD), and analyzed by Excel 7.0 and SPPS 13.0 for Windows software. Q-test was used for the comparison between groups, and the self-paired t-test was used for the comparison of a group before and after administration. It indicated significant difference when P<0.05.

[3] = formal test, all dose groups, febuxostat high-dose group
[4] = formal test, febuxostat high-dose group

Row | Compound | Serum uric acid level, Value after 3 h of drug administration (hyperuricemia rats [1]; 10 mg/kg oral) | Autopsy results of survival animals (ICR mice; formal test) | animal deaths within 24 hours from the administration (ICR mice; [3]) | Abnormal reactions within 12 hours from ig administration (ICR mice; [4]) | Number of dead animals (ICR mice) | death, preliminary experiments (ICR mice) | toxic reactions, preliminary experiments (ICR mice) | LD50 at 14 days (in vivo) | LD50 at 14 days (in vivo; 3000 mg/kg) | uric acid-lowering effect (in words) (hyperuricemia rats [1]) | p, uric acid level 3 h after drug administration compared with the blank group (hyperuricemia rats [1]) | animal deaths within 24 hours from the administration (ICR mice; mouse, in vivo) | LD50/Maximum dose (ICR mice) | Serum uric acid content, Value after 3 h of drug administration (hyperuricemia rats [2]; 2.5 mg/kg oral) | Serum uric acid content, Value after 3 h of drug administration (hyperuricemia rats [2]; 5 mg/kg oral) | Serum uric acid content, Value after 3 h of drug administration (hyperuricemia rats [2]; 10 mg/kg oral) | Serum uric acid level, Value after 3 h of drug administration (hyperuricemia rats [1]; 14 mg/kg oral)
1 | Cc1nc(-c2ccc(OCC(C)C)c(C#N)c2)sc1C(=O)OCCO [Compound F-1A] | 71.0 ± 24.4^a3b3c1 μmol/L | No obvious abnormalities were observed in the organs | no animal deaths were observed | no abnormalities were observed | 0 | no animal died | no obvious toxicity symptom was observed | 3000 mg/kg | ≥ 3000 mg/kg |  |  |  |  |  |  |  | 
2 | Cc1nc(-c2ccc(OCC(C)C)c(C#N)c2)sc1C(=O)OCC(O)CO (stereo not shown) [Compound F-1B] | 67.5 ± 19.4^a3b3 μmol/L | No obvious abnormalities were observed in the organs |  | no abnormalities were observed | 0 |  | no obvious toxicity symptom was observed | 3000 mg/kg | ≥ 3000 mg/kg | very obvious uric acid-lowering effects | no significant difference | no animal deaths were observed |  |  |  |  | 
3 | Cc1nc(-c2ccc(OCC(C)C)c(C#N)c2)sc1C(=O)NCC(=O)O [Compound F-2A] | 78.3 ± 25.1^a3b3c2 μmol/L | No obvious abnormalities were observed in the organs | no animal deaths were observed | no abnormalities were observed | 0 | no animal died | no obvious toxicity symptom was observed | 3000 mg/kg | ≥ 3000 mg/kg |  | < 0.01 |  |  |  |  |  | 
4 | Cc1nc(-c2ccc(OCC(C)C)c(C#N)c2)sc1C(=O)NC(C)C(=O)O (stereo not shown) [Compound F-2B] | 70.3 ± 16.4^a3b3c1 μmol/L | No obvious abnormalities were observed in the organs | no animal deaths were observed | no abnormalities were observed | 0 | no animal died | no obvious toxicity symptom was observed |  |  |  |  |  | 3000 mg/kg |  |  |  | 
5 | Cc1nc(-c2ccc(OCC(C)C)c(C#N)c2)sc1C(=O)NC(CC(=O)O)C(=O)O (stereo not shown) [Compound F-2C] | 68.6 ± 19.2^a3b3c1 μmol/L | No obvious abnormalities were observed in the organs | no animal deaths were observed | no abnormalities were observed | 0 | no animal died | no obvious toxicity symptom was observed |  |  |  |  |  | 3000 mg/kg | 172.7 ± 33.9^a3 μmol/L | 131.9 ± 29.7^a3, b3 μmol/L | 107.3 ± 21.2^a3, b3, c3 μmol/L | 
6 | Cc1nc(-c2ccc(OCC(C)C)c(C#N)c2)sc1C(=O)N1CCC[C@H]1C(=O)O [Compound F-2D] | 69.1 ± 23.4^a3b3c1 μmol/L | No obvious abnormalities were observed in the organs | no animal deaths were observed | no abnormalities were observed | 0 | no animal died | no obvious toxicity symptom was observed | 3000 mg/kg | ≥ 3000 mg/kg |  |  |  |  |  |  |  | 
7 | Cc1nc(-c2ccc(OCC(C)C)c(C#N)c2)sc1C(=O)OCCCN(C)CCCO [Compound F-3B] | 66.3 ± 17.1^a3b3 μmol/L | No obvious abnormalities were observed in the organs | no animal deaths were observed | no abnormalities were observed | 0 | no animal died | no obvious toxicity symptom was observed | 3000 mg/kg | ≥ 3000 mg/kg | very obvious uric acid-lowering effects | no significant difference |  |  |  |  |  | 
8 | Cc1nc(-c2ccc(OCC(C)C)c(C#N)c2)sc1C(=O)NC1C(O)OC(CO)C(O)C1O (stereo not shown) [Compound F-4A] | 71.4 ± 19.6^a3b3c1 μmol/L | No obvious abnormalities were observed in the organs |  | no abnormalities were observed | 0 |  | no obvious toxicity symptom was observed | 3000 mg/kg | ≥ 3000 mg/kg |  |  | no animal deaths were observed |  |  |  |  | 
9 | CCOC(=O)c1sc(-c2ccc(OCC(C)C)c(C#N)c2)nc1C [Febuxostat ethyl ester, ethyl 2-[3-cyano-4-isobutoxyphenyl]-4-methylthiazole-5-carboxylate, reference compound] |  |  |  |  |  |  |  |  |  | inferior to febuxostat |  |  |  |  |  | 177.3 ± 38.6^a3 μmol/L | 113.9 ± 24.9^a3b3c3 μmol/L
